According to PubChem BioAssay (NCI):
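In this assay, cells in 96-well plates receive the compound at five concentrations for 48 hours. Endpoints are linearly interpolated between the surrounding concentrations. TGI denotes the concentration required for complete inhibition of growth.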 Where a SMILES comes first, the peptide text is derived from it. The star is where a group is joined. Boc = CC(C)(C)OC(=O)*

Assays:
Test in all cases: NCI tumour cell line growth inhibition, 48 h
[1] = system: HOP-92 NSCLC
[2] = system: EKVX NSCLC
[3] = system: IGROV1 ovarian
[4] = system: TK-10 renal
[5] = system: MDA-N
[6] = system: UACC-62 melanoma
[7] = system: OVCAR-5 ovarian
[8] = system: DU-145 prostate
[9] = system: SNB-19 CNS
[10] = system: 786-0 renal
[11] = system: SN12C renal
[12] = system: NCI-H23 lung
[13] = system: NCI-H522 lung
[14] = system: KM12 colon
[15] = system: A498 renal
[16] = system: HCT-116 colon
[17] = system: K-562 leukemia
[18] = system: NCI/ADR-RES ovarian
[19] = system: HCT-15 colon
[20] = system: A549 NSCLC

Structure (SMILES)	TGI [1]	TGI [2]	TGI [3]	TGI [4]	TGI [5]	TGI [6]	TGI [7]	TGI [8]	TGI [9]	TGI [10]	TGI [11]	TGI [12]	TGI [13]	TGI [14]	TGI [15]	TGI [16]	TGI [17]	TGI [18]	TGI [19]	TGI [20]
O=c1cc(-c2ccccc2)[nH]c2cc(F)c(F)cc12	> 100 µM	> 100 µM	> 54.1 µM	> 100 µM	1.17 µM	> 50.1 µM	> 100 µM	34.1 µM	> 50.6 µM	4.18 µM	> 100 µM	22.9 µM	10.8 µM	> 100 µM	> 62.8 µM	> 100 µM	> 100 µM	> 19.6 µM	> 100 µM	> 31.5 µM
CC(NC(=O)C(NC(=O)OC(C)(C)C)C(C)C)C(=O)N1CCCC1C(=O)NCC(=O)NC(C(=O)NCC(=O)O)C(C)C (centres undefined) (Boc-VAPGVG-OH; configuration not given here)	> 100 µM	> 100 µM	> 100 µM	> 100 µM	> 100 µM	> 100 µM	> 100 µM	> 100 µM	> 100 µM	> 100 µM	> 100 µM	> 100 µM	> 100 µM		> 100 µM	> 100 µM	> 100 µM	> 100 µM	> 100 µM	
CCCCON1C[C@@H](O)C(O)[C@@H](O)C1 (some centres undefined)	> 100 µM	> 100 µM	> 100 µM	> 100 µM	> 100 µM	> 100 µM	> 100 µM	> 100 µM	> 100 µM	> 100 µM	> 100 µM	> 100 µM	> 100 µM	> 100 µM	> 100 µM	> 100 µM	> 100 µM	> 100 µM	> 100 µM	> 100 µM
COC1=C2CC(C)CC(OC)[C@@H](OC(=O)CCN)[C@H](C)/C=C(\C)C(OC(N)=O)C(OC)/C=C\C=C(/C)C(=O)NC(=CC1=O)C2=O (some centres undefined)	2.05 µM	25 µM	3.25 µM	20.4 µM	12.7 µM	4.34 µM	21.1 µM	20.8 µM	20.4 µM	14.2 µM	14.2 µM	6.22 µM	0.658 µM	8.36 µM	31.2 µM	12.3 µM		34.5 µM	13.8 µM	29.2 µM
COc1ccc(NC(=O)CC(=O)N2N=C(N3CCCCC3)CC2c2ccccc2)cc1 (centres undefined)	> 100 µM	> 100 µM	> 100 µM	> 100 µM	> 100 µM	> 100 µM	> 100 µM	> 100 µM	> 100 µM	> 100 µM	> 100 µM	> 100 µM	> 100 µM	> 100 µM	> 100 µM	> 100 µM		> 100 µM	> 100 µM	> 100 µM
Cc1ccc2c(c1)C(=O)/C(=C\c1ccccc1)CCS2(=O)=O	> 56.9 µM	> 100 µM	28.7 µM	30.7 µM	> 52.4 µM	31.9 µM	> 55.7 µM	21.8 µM	28.2 µM	25.2 µM	53.3 µM	40.7 µM	14.6 µM	28.2 µM	52.1 µM	18.7 µM	5.52 µM	> 52.2 µM	19.7 µM	> 87.8 µM
CC(C)/C(Cl)=N\OC(=O)Nc1cccc(F)c1	4.69 µM	31.8 µM	36.2 µM	28.1 µM	29.5 µM	45.3 µM	35.1 µM	32.5 µM	> 100 µM	29.6 µM	32.2 µM	34.2 µM	2.98 µM	16.7 µM	17.9 µM	30.6 µM	4.8 µM	37 µM	30.6 µM	34.9 µM
C[C@H]1O[C@@H](c2c(O)ccc3ccccc23)C[C@@H](N(C)C)C1O (some centres undefined)	> 100 µM	> 100 µM	> 100 µM	> 100 µM	> 100 µM	> 100 µM	> 100 µM	> 100 µM	> 100 µM	> 100 µM	> 100 µM	> 100 µM	> 100 µM		> 100 µM	> 100 µM	> 100 µM	> 100 µM	> 100 µM	> 100 µM
COc1cc2cc(C(=O)N3CC(CCl)c4c3cc([N+](=O)[O-])c3ccccc43)[nH]c2c(OC)c1OC (centres undefined)	> 100 µM	> 100 µM	> 100 µM	> 100 µM	> 100 µM	> 100 µM	> 100 µM	> 100 µM	> 100 µM	> 100 µM	> 100 µM	> 100 µM	> 100 µM	> 100 µM	97.6 µM	> 100 µM	> 100 µM	> 78.3 µM	> 100 µM	> 100 µM
CCOc1ccc(N=NC2C(=O)N(C(=O)CC(=O)Nc3ccccc3OC)N=C2C)cc1 (centres undefined)	> 50.6 µM	> 100 µM	> 100 µM	> 52.3 µM	6.14 µM	> 100 µM	> 100 µM	> 100 µM	> 34.8 µM	> 57.3 µM	> 100 µM	> 100 µM	55.3 µM	> 100 µM	> 31.6 µM	> 100 µM	> 100 µM	> 100 µM	> 100 µM	> 100 µM
N#Cc1c(-c2ccc(Cl)cc2)cc(-c2ccc(Nc3ccnc4cc(C(F)(F)F)ccc34)cc2)[nH]c1=O	32.7 µM	> 100 µM	> 100 µM	63.2 µM	11.9 µM	39.6 µM	> 65 µM	> 48.5 µM	34.3 µM	24.9 µM	> 100 µM	> 100 µM	> 100 µM	> 100 µM	> 89.6 µM	> 44 µM	15.6 µM	> 100 µM	> 100 µM	> 100 µM
C#CCOC(=O)c1ccccc1O	> 100 µM	> 100 µM	> 100 µM	> 100 µM	> 100 µM	> 100 µM	> 100 µM	> 100 µM	> 100 µM	> 100 µM	> 100 µM	> 100 µM	> 100 µM	> 100 µM	> 100 µM	> 100 µM	> 100 µM	> 100 µM	> 100 µM	
